Inconclusive results are not listed. Activity calls are given as the source filed them.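 The calls were made as follows: active = compounds lowering the luciferase signal with a fitted half-maximal dose at most twice their top valid dose (cut at about 30 µM in these data); inconclusive = flat fits with moderate signal loss, or poor fits; inactive = the rest.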

The test system of this experiment is Clone20 osteoblast Shn3 3'UTR firefly luciferase, 24 h. The experiment is described as follows: Schnurri-3 3'UTR-luciferase signal suppressors – cell-based, Clone20 osteoblasts, luminescence, dry powder, set 2, dose response (AID 743417).
As to `O=C(Nc1nc(-c2ccccn2)cs1)c1ccc(Br)s1`, the AC50 is 1 µM.

On to `OC(c1cc(-c2cccc(Cl)c2)nc2ccccc12)C1CCCCN1` (centres undefined), for which the half-maximal activity concentration (AC50) was 10.8 µM.

In the case of `C#CCn1c(=NC(=O)c2ccc(S(=O)(=O)N3CCc4ccccc4C3)cc2)sc2cc(S(N)(=O)=O)ccc21`, the AC50 is 1.29 µM.

With `CC1CC(C)CC(C)C(O)C(C#N)=CC=CCC(C2CCCC2C(=O)O)OC(=O)CC(O)C(C)C1` (centres undefined), the AC50 is under 0.26 µM.

As to `O=C(c1cc2sccc2n1Cc1ccccc1)N1CCN(c2nc3ccccc3s2)CC1`, the AC50 is 1.09 µM.

`Cc1ccc(NC(=O)C2CCN(S(=O)(=O)c3ccc4c(c3)NC(=O)C(C)S4)CC2)cc1Cl` (centres undefined): the AC50 is 2.83 µM.

Take `Cc1nn(-c2ccccc2)c(C)c1C(=O)OC(C)C(=O)NC1CCCCC1` (centres undefined): the AC50 is 8.19 µM.

As for `COc1cc(NC(=O)c2cccc3c(-c4cccnc4)coc23)cc(OC)c1OC`, the AC50 was 0.978 µM.

For the molecule `Cc1ccc(F)cc1CNC(=O)c1cc(COc2ccc3ncccc3c2)on1`, the AC50 was 4.88 µM.

On to `C[C@H](NC(=O)c1ncn2c1c(=O)[nH]c1ccc(Br)cc12)c1ccccc1`, for which the AC50 was 8.76 µM.

On to `CC(Sc1nc2ccccc2c(=O)n1C)C(=O)N(C)C1CCCCC1` (centres undefined), for which the AC50 was 2.27 µM.

Turning to `CCc1c(C)nc2cc(-c3ccc(OC)c(OC)c3)nn2c1NCC1CC1`, the AC50 was 5.11 µM.

Take `Cn1c(COc2ccc(Br)cc2)nnc1SC1CCc2ccccc2C1=O` (centres undefined): the AC50 is 35.2 µM.

With `C#CC(=O)N(c1ccc(OC)c(OC)c1)C(C(=O)NC1CCCC1)c1cccs1` (centres undefined), the AC50 is 3.32 µM.

`Cc1cc(C)n(-c2nc(Nc3ccccc3C(F)(F)F)nc(-n3nc(C)cc3C)n2)n1`: the AC50 was 5.49 µM.

Regarding `Cc1ccc2[nH]c3c(N4CCc5ccccc5C4)ncnc3c2c1`, the AC50 was 1.18 µM.

For `O=C(CCN1CCc2ccccc2C(O)(c2ccccc2)C1)c1ccc2c(c1)OCCO2` (centres undefined), the AC50 was 23.1 µM.

As to `O=[N+]([O-])c1cccnc1S(=O)(=O)c1ccccc1`, the AC50 was 4.79 µM.

Consider `CCOC(=O)/C=C/C(=O)OCC(=O)NC(c1ccccc1)c1ccccc1`, for which the AC50 was 5.14 µM.

In the case of `CCCCCCN1C[C@H](n2cc(-c3ccc(F)cc3)nn2)[C@@H](O)C[C@@H]1c1ccc(Cl)cc1`, the AC50 was 10.3 µM.

Consider `NS(=O)(=O)c1ccc(CCNc2nn3c(-c4cccc(OC(F)(F)F)c4)cnc3s2)cc1`, for which the AC50 is 3.93 µM.

With `c1ccc(-c2cc3nc(NCC4CC4)nc(NCC4CCCCC4)c3s2)cc1`, the AC50 is 2.67 µM.

With `CCOC(=O)c1c(C)[nH]c2c1-c1ccccc1C(=O)C2=O`, the AC50 is 0.496 µM.

As for `CC1(C)CC[C@]2(C(=O)n3ccnc3)CC[C@]3(C)[C@H](C(=O)C=C4[C@@]5(C)C=C(C#N)C(=O)C(C)(C)[C@@H]5CC[C@]43C)[C@@H]2C1`, the AC50 was under 0.26 µM.

`CCOC(=O)N1CCN(S(=O)(=O)c2ccc(C(=O)Nc3nc4ccc(F)cc4s3)cc2)CC1`: the AC50 was 4.79 µM.

As for `C[C@@H]1C[C@@H]2O[C@H]2/C=C\C=C\C(=O)Cc2c(Cl)c(O)cc(O)c2C(=O)O1`, the AC50 was 6.4 µM.

`O=C(Nc1ccc(Cl)c(Cl)c1)Nc1ccc(N2CCCC2)c(S(=O)(=O)Nc2ccccc2Cl)c1`: the AC50 was 5.13 µM.

Take `CC(Oc1ccc(Cl)cc1Cl)c1nc(-c2ccc(NC(=O)c3ccncc3)cc2)no1` (centres undefined): the AC50 is 3.93 µM.

With `CCOc1cc(CNCc2ccccc2)ccc1OCc1ccc(Cl)cc1`, the AC50 was 6.69 µM.

As to `Cn1nnnc1Sc1ncnc2scc(-c3ccc(Br)cc3)c12`, the AC50 was 0.334 µM.

Turning to `O=C(Nc1ccc(F)c(F)c1)c1ccc(F)c(S(=O)(=O)N2CCC3(CC2)OCCO3)c1`, the AC50 was 12.2 µM.

For the molecule `CCCCCc1nc2c(c(=O)c3ccccc3n2C)c(=O)n1C1CCCCCC1`, the AC50 is 8.21 µM.

As for `O=S(=O)(Nc1cc(Sc2ncn[nH]2)c(O)c2ccccc12)c1ccccc1`, the AC50 is 7.55 µM.

Turning to `CS(=O)(=O)c1ccc(C(=O)OCC(=O)N2CCN(CCC3CCCCC3)CC2)cc1[N+](=O)[O-]`, the AC50 was 2.41 µM.

Take `CCCCC(=O)NC(c1ccc(OC)cc1)c1ccc2cccnc2c1O` (centres undefined): the AC50 is 2.28 µM.

With `COc1ccccc1-n1cc([C@@H]2C[C@H]3CN(c4ccccc4)C(=O)[C@]34CCCN24)cn1`, the AC50 is 1.46 µM.

Regarding `c1ccc(-c2cc(CSc3nc4ccccc4[nH]3)on2)cc1`, the AC50 was 3.76 µM.

As to `COc1ccccc1C(CCNCc1ccc(N(C)C)cc1)c1ccc(OC(C)C)cc1` (centres undefined), the AC50 is 6.48 µM.

Turning to `CN(CCOc1ccc(Cl)cc1)C(=O)c1cccc(S(=O)(=O)N2CCN(Cc3ccccc3)CC2)c1`, the AC50 was 2.29 µM.

With `COc1cccc(-c2cc(N3CCN(C(=O)c4ccoc4)CC3)n3nc(-c4cccc(Cl)c4)cc3n2)c1`, the AC50 was 6.22 µM.

As for `CC(C)(C)c1ccc(CN(Cc2ccccc2)C(c2ccccn2)c2nnnn2C(C)(C)C)cc1` (centres undefined), the AC50 is 13.5 µM.

As for `O=C1C(Br)=C(c2ccccc2)C(c2ccccc2)=C1c1ccccc1`, the AC50 is 0.46 µM.

Regarding `CCc1nc(N2CCN(C(C)=O)CC2)c2c3c(sc2n1)CC(C(C)(C)C)CC3` (centres undefined), the AC50 was 6.76 µM.

Turning to `COc1ccc(NS(=O)(=O)c2ccc(N3CCCCC3)c(N)c2)cc1`, the AC50 was 0.824 µM.

For the molecule `O=C(NCc1ccccc1)c1nc(S(=O)(=O)Cc2ccccc2)ncc1Cl`, the AC50 is 1.19 µM.

For `COc1ccccc1-c1cc(C(F)(F)F)nc(S(=O)(=O)CCCC(=O)Nc2cc(C)on2)n1`, the AC50 was 6.57 µM.

`O=C(Nc1nc2ccccc2s1)C1CCN(S(=O)(=O)c2cc([N+](=O)[O-])ccc2Cl)CC1`: the AC50 was 3.07 µM.

As to `CCOC(=O)N1CCN(C(=O)c2ccc(Cn3c(=S)[nH]c4ccc(Br)cc4c3=O)cc2)CC1`, the AC50 was 1.25 µM.

On to `O=c1c(Br)c(Br)cnn1-c1ccccc1`, for which the concentration at half-maximal activity (AC50) is 1.82 µM.

As for `O=C(Cc1ccc(Cl)cc1Cl)Nc1ccncc1`, the AC50 was 2.56 µM.

On to `C=C1C(=O)OC2CC(C)C3C=CC(=O)C3(C)C(O)C12` (centres undefined), for which the AC50 was under 0.26 µM.

Take `CCS(=O)(=O)c1ncc(Cl)c(C(=O)Nc2ccccc2OC)n1`: the AC50 was 3.71 µM.

Take `O=c1c2ccccc2nc2n1C(CSCc1cccc(C(F)(F)F)c1)CS2` (centres undefined): the AC50 was 1.68 µM.

For the molecule `Oc1ccccc1Nc1nc(NCc2ccccc2)c2ccccc2n1`, the AC50 was 10.7 µM.

Turning to `Cc1cc(C)n(-c2ccc3cccc(NS(C)(=O)=O)c3n2)n1`, the AC50 is 1.32 µM.

On to `Cn1nc(C(C)(C)C)cc1C(=O)N1CCCCC1c1cc(C(=O)Nc2cccc3c2CCCC3)no1` (centres undefined), for which the AC50 was 10.2 µM.

Consider `CCOC(=O)C1CCCN(S(=O)(=O)c2ccc(S(=O)(=O)N3CCCC3)cc2)C1` (centres undefined), for which the AC50 was 0.821 µM.

On to `O=C(OCc1ccccc1)N(CCCCN(CCCNCc1ccccc1)C(=O)OCc1ccccc1)CCCNCc1ccccc1`, for which the AC50 was 5.36 µM.

With `CCOC(=O)C1CCN(C(=O)c2ccc(OCC(=O)Nc3cccc(C(F)(F)F)c3)c(OC)c2)CC1`, the AC50 was 1.75 µM.

For the molecule `CCOC(=O)c1cccc(NC2c3ccccc3C(=O)N2Cc2ccco2)c1` (centres undefined), the AC50 was 4.26 µM.

On to `Cc1cccnc1CN1CCN(C(=O)c2cc(COc3ccc4ncccc4c3)on2)CC1`, for which the AC50 was 2.1 µM.

Regarding `Cc1ccc(C(C)C)cc1NC(=O)Nc1ccc([N+](=O)[O-])cc1`, the AC50 was 7.19 µM.

With `S=C(NCc1ccc(Cl)cc1)Nc1ccncc1`, the AC50 was 1.5 µM.

As for `C=CCOc1nc2c(c(=O)n(C)c(=O)n2C)n1Cc1ccc(Cl)cc1`, the AC50 is 1.03 µM.

For the molecule `O=C(CN1C(=O)c2ccccc2S1(=O)=O)c1ccc(Cl)cc1Cl`, the AC50 is 3.53 µM.

For the molecule `CN(c1cccc(Cl)c1)S(=O)(=O)c1cccc(C(=O)NCc2ccncc2)c1`, the AC50 was under 0.26 µM.

On to `COc1ccc(C)c2sc(N(CCCN(C)C)C(=O)c3ccc(S(=O)(=O)N4CCc5ccccc5C4)cc3)nc12`, for which the AC50 was 4.4 µM.

With `O=C(CN(C(=O)c1ccccc1Cl)C1CCCCC1)Nc1ccc(Cl)c([N+](=O)[O-])c1`, the AC50 is 5.1 µM.

As for `CCN(c1ccccc1)S(=O)(=O)c1ccc(Cl)c(NC(=O)CN(C)Cc2cccc(F)c2)c1`, the AC50 was 8.78 µM.

In the case of `COc1ccc(NS(=O)(=O)c2ccc(NC(=O)C(CCSC)NC(N)=O)cc2)cc1` (centres undefined), the AC50 was > 70 µM (inactive).

Consider `CCCCCCCCOC(=O)c1cc([N+](=O)[O-])c(Sc2ncnc3nc[nH]c23)c([N+](=O)[O-])c1`, for which the AC50 is 2.81 µM.

As for `CSC1SCC2C(=O)N(C)C(C(C)C)C(=O)OCC(NC(=O)c3cnc4ccccc4n3)C(=O)NC(C)C(=O)N(C)C1C(=O)N(C)C(C(C)C)C(=O)OCC(NC(=O)c1cnc3ccccc3n1)C(=O)NC(C)C(=O)N2C` (centres undefined), the AC50 is under 0.26 µM.

`COc1ccccc1-c1cc(C(F)(F)F)nc(S(C)(=O)=O)n1`: the AC50 was 4.06 µM.

Take `Cc1ccc(Cn2ccc(NC(=O)c3nn(C)cc3[N+](=O)[O-])n2)cc1`: the AC50 is 4.09 µM.

On to `Oc1ccc(CN2CCc3ccccc3C2)c2cccnc12`, for which the AC50 was 0.673 µM.

For the molecule `O=C(Nc1ccc(Cl)cc1)c1cc(S(=O)(=O)N2CCOCC2)cs1`, the AC50 was 4.23 µM.

With `CCN(CC)S(=O)(=O)c1cc(NC(=O)CNc2cccc(S(=O)(=O)N3CCCC3)c2)ccc1C`, the AC50 was 0.648 µM.

`CCN1CCN(Cc2ccc(NC(=O)c3cc(NC(=O)c4cncc(-c5ccc(C#N)cc5)c4)cc(OC)c3)cc2C(F)(F)F)CC1`: the AC50 was 3.36 µM.

As for `Cc1cccc(CS(=O)(=O)c2ncc(Cl)c(C(=O)Nc3nnc(C(C)C)s3)n2)c1`, the AC50 was 1.62 µM.

For the molecule `O=C(Oc1c(CN2CCOCC2)cc(Cl)c2cccnc12)c1ccccc1Cl`, the AC50 was 4.59 µM.

Regarding `CCOC(=O)c1c(NC(=O)C2c3ccccc3Oc3ccccc32)sc(C(C)=O)c1C`, the AC50 is 4.67 µM.

For the molecule `CC(C)(C)c1cc(C(=O)N/N=C/c2ccccc2O)n(-c2ccccc2)n1`, the AC50 is 2.25 µM.

On to `COc1ccc(Cl)cc1N/C(N)=N/c1nc(CSc2ccc(C)cc2)cc(=O)[nH]1`, for which the AC50 is 1.82 µM.

In the case of `CNc1ccccc1C(C)(C)c1cc(-c2cccc(OC)c2)no1`, the AC50 is 1.92 µM.

Regarding `CN(CCOc1ccc(Cl)cc1)C(=O)c1cccc(S(=O)(=O)N2CCN(c3ccc(F)cc3)CC2)c1`, the AC50 is 1.77 µM.

For the molecule `CC(C)(C)c1cc(C(c2cccnc2)N2CCN(CCO)CC2)cc(C(C)(C)C)c1O` (centres undefined), the AC50 is 1.7 µM.

Regarding `CCOc1ccc(S(=O)(=O)NCc2ccncc2)cc1`, the AC50 is 0.261 µM.

On to `CCCCCn1c(=N)n(CC(O)COc2ccccc2OC)c2ccccc21` (centres undefined), for which the AC50 was 2.12 µM.

As for `Cc1ccc(NN2C(=O)C=C(c3ccc(Cl)cc3)C2=O)cc1`, the AC50 was 6.53 µM.

One may read the AC50 as the concentration at which the activity in the assay is half-maximal.
